In US20240199692A1 (priority 2019, published 2024):
Where two headings read alike, the source gives them in different places. *1 amine or outer side, *2 acyl side, *3 side chain or, on linkers, in order; H or OH if unused. Where a SMILES comes first, the peptide text is derived from it. Bridges are numbered along the chain shown (N, C = ends). [ ]: non-standard residue; d: D form. The star is where a group is joined. Phenylsulfonyl(4-anisamido) = COc1ccc(C(=O)Nc2ccc(S(=O)(=O)*)cc2)cc1; Benzoyl(4-(4-EtNHCO-PhO)) = CCNC(=O)c1ccc(Oc2ccc(C(=O)*)cc2)cc1; Benzoyl(4-O-C6H4-4-CONHMe) = CNC(=O)c1ccc(Oc2ccc(C(=O)*)cc2)cc1; Benzoyl(4-OPh(4-CONH2)) = NC(=O)c1ccc(Oc2ccc(C(=O)*)cc2)cc1; Benzenesulfonyl(4-OPh) = O=S(=O)(c1ccc(Oc2ccccc2)cc1)*; X12 = O=S(=O)(c1ccc(-c2cn(-c3ccccc3)nn2)cc1)*; Benzoyl(4-OPh) = O=C(c1ccc(Oc2ccccc2)cc1)*; d(γGlu) = O=C(O)[C@@H](CCC(=O)[*:2])N[*:1]; d(βAsp) = O=C(O)[C@@H](CC(=O)[*:2])N[*:1]; X7 = O=S(=O)(c1ccc(-c2ccc(OCCO)cc2)cc1)*; εLys = N[C@@H](CCCCN[*:1])C(=O)[*:2]; NMeI = CC[C@H](C)[C@H](NC)C(=O)O; NMeE = CN[C@@H](CCC(=O)O)C(=O)O; NMeD = CN[C@@H](CC(=O)O)C(=O)O; NMeN = CN[C@@H](CC(N)=O)C(=O)O; NMeL = CN[C@@H](CC(C)C)C(=O)O; β3hP = O=C(O)C[C@@H]1CCCN1; Orn = NCCC[C@H](N)C(=O)O; Dab = NCC[C@H](N)C(=O)O; Dap = NC[C@H](N)C(=O)O; Aib = CC(C)(N)C(=O)O; Ava = NCCCCC(=O)O; GABA = NCCCC(=O)O; βAla = NCCC(=O)O; Sar = CNCC(=O)O

Biological target: T1, MMP2 (Homo sapiens, UniProt P08253)
T1 sequence (P08253 110-660): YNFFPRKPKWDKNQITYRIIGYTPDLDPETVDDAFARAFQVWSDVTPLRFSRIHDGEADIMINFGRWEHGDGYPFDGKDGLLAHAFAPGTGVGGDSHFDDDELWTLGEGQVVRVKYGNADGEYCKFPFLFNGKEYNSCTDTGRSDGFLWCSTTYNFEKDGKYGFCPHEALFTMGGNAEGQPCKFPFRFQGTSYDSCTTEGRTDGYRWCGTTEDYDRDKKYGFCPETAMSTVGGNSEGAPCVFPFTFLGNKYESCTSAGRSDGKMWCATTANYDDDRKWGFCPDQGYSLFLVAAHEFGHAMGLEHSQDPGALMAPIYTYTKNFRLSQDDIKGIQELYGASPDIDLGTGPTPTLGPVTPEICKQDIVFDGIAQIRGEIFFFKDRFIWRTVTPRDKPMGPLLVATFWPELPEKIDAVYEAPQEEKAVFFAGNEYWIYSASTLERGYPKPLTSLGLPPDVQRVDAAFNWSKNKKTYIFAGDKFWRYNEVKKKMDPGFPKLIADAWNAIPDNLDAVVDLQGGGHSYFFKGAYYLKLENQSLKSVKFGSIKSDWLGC
Assay: Inhibitory effects on human MMP2 (Method 1), enzyme assay with MOCAc-Pro-Leu-Gly-Leu-A2pr(Dnp)-Ala-Arg-NH2 substrate, 96-well
Type: biochemical
Settings: read-out: Human MMP2, IC50
Method: In a reaction solution [50 mmol/L Tris-HCl (pH 7.5), 150 mmol/L NaCl, 10 mmol/L CaCl2, 0.05% Brij L23], 100 μg/mL human recombinant MMP2 enzyme and 1 mmol/L 4-Aminophenylmercuric acetate were mixed together, and reacted at 37° C. for 60 minutes. The human MMP2 activated through the reaction was poured into a 96-well microplate to reach a final concentration of 0.7 or 7 ng/mL.

[1] = Test Example No. 1-1 (Method 1, 96-well microplate)
[2] = Test Example No. 1-1 (Method 1, 96-well)

SMILES	IC50 [1]	IC50 [2]
CC[C@H](C)[C@@H](C(=O)N1CCC[C@H]1CC(N)=O)N(C)C(=O)[C@H](CC(C)C)NC(=O)[C@H](CCN)NC(=O)CC[C@@H](NS(=O)(=O)c1ccc(-c2cn(-c3ccccc3)nn2)cc1)C(=O)O [Compound 608, N-[(2S)-4-amino-1-({(2S)-1-[{(2S,3S)-1-[(2S)-2-(2-amino-2-oxoethyl)pyrrolidin-1-yl]-3-methyl-1-oxopentan-2-yl}(methyl)amino]-4-methyl-1-oxopentan-2-yl}amino)-1-oxobutan-2-yl]-N^2-[4-(1-phenyl-1H-1,2,3-triazol-4-yl)benzene-1-sulfonyl]-D-glutamine] ({X12-d(γGlu)}-[Dab]L[NMeI][β3hP]-NH2)	0.34 nM	
CN(C(=O)[C@@H]1CCCCNC(=O)CCNC(=O)CC[C@H](NC(=O)CCCNS(=O)(=O)c2ccc(Oc3ccccc3)cc2)C(=O)N[C@@H](CC(=O)O)C(=O)N[C@@H](CCN)C(=O)N1)[C@@H](CC(=O)O)C(=O)N1CCC[C@H]1CC(N)=O [Compound 895] ({Benzenesulfonyl(4-OPh)-GABA}-ED[Dab]K[NMeD][β3hP]-NH2; linker 1-4 via βAla (inferred); N-terminus assumed)		1.3 nM
CC[C@H](C)[C@@H](C(=O)N1CCC[C@H]1CC(N)=O)N(C)C(=O)[C@@H]1CCCCNC(=O)CCNC(=O)CC[C@H](NC(=O)CCCNS(=O)(=O)c2ccc(Oc3ccccc3)cc2)C(=O)N[C@@H](CC(=O)O)C(=O)N[C@@H](CCN)C(=O)N1 [Compound 894] ({Benzenesulfonyl(4-OPh)-GABA}-ED[Dab]K[NMeI][β3hP]-NH2; linker 1-4 via βAla (inferred); N-terminus assumed)		1.1 nM
CC[C@H](C)[C@@H](C(=O)N1CCC[C@H]1C(N)=O)N(C)C(=O)[C@H](CC(C)C)NC(=O)[C@H](C)NC(=O)[C@H](CC(=O)O)NC(=O)[C@H](CC(N)=O)N(C)C(=O)CCCNC(=O)c1ccc(Oc2ccccc2)cc1 [Compound 94] ({Benzoyl(4-OPh)-GABA}-[NMeN]DAL[NMeI]P-NH2; N-terminus assumed)	0.088 nM	
CC[C@H](C)[C@@H](C(=O)N1CCC[C@H]1C(N)=O)N(C)C(=O)[C@H](CC(C)C)NC(=O)[C@H](CCN)NC(=O)[C@H](CC(=O)O)NC(=O)[C@H](CC(C)C)N(C)C(=O)CCCNC(=O)c1ccc(Oc2ccccc2)cc1 [Compound 136] ({Benzoyl(4-OPh)-GABA}-[NMeL]D[Dab]L[NMeI]P-NH2; N-terminus assumed)	4.7 nM	
CC[C@H](C)[C@@H](C(=O)N1CCC[C@H]1CC(N)=O)N(C)C(=O)[C@H](CC(C)C)NC(=O)[C@H](CCN)NC(=O)[C@H](CC(=O)O)NC(=O)[C@H](CCC(=O)O)NC(=O)CCCNC(=O)c1ccc(Oc2ccccc2)cc1 [Compound 147] ({Benzoyl(4-OPh)-GABA}-ED[Dab]L[NMeI][β3hP]-NH2; N-terminus assumed)	0.14 nM	
CC(C)C[C@H](NC(=O)[C@H](CCN)NC(=O)[C@H](CC(=O)O)NC(=O)[C@H](CCC(=O)O)NC(=O)CCCNC(=O)c1ccc(Oc2ccccc2)cc1)C(=O)N(C)[C@@H](CCC(=O)O)C(=O)N1CCC[C@H]1CC(N)=O [Compound 144] ({Benzoyl(4-OPh)-GABA}-ED[Dab]L[NMeE][β3hP]-NH2; N-terminus assumed)	0.26 nM	
CC(C)C[C@H](NC(=O)[C@H](CCN)NC(=O)[C@H](CC(=O)O)NC(=O)[C@H](CC(N)=O)NC(=O)CCCNC(=O)c1ccc(Oc2ccccc2)cc1)C(=O)N(C)[C@@H](CCC(=O)O)C(=O)N1CCC[C@H]1C(N)=O [Compound 109] ({Benzoyl(4-OPh)-GABA}-ND[Dab]L[NMeE]P-NH2; N-terminus assumed)	0.7 nM	
CC[C@H](C)[C@@H](C(=O)N1CCC[C@H]1C(N)=O)N(C)C(=O)[C@H](CC(C)C)NC(=O)[C@H](C)NC(=O)[C@H](CC(=O)O)NC(=O)[C@@H]1CCCN1C(=O)CCCNC(=O)c1ccc(Oc2ccccc2)cc1 [Compound 117] ({Benzoyl(4-OPh)-GABA}-PDAL[NMeI]P-NH2; N-terminus assumed)	0.55 nM	
CC[C@H](C)[C@@H](C(=O)N1CCC[C@H]1CC(N)=O)N(C)C(=O)[C@H](CC(C)C)NC(=O)[C@H](CCN)NC(=O)[C@H](CC(=O)O)NC(=O)[C@H](CCCNC(=N)N)NC(=O)CCCCNC(=O)c1ccc(Oc2ccc(C(=O)NC)cc2)cc1 [Compound 189] ({Benzoyl(4-O-C6H4-4-CONHMe)-Ava}-RD[Dab]L[NMeI][β3hP]-NH2; N-terminus assumed)	0.86 nM	
CC[C@H](C)[C@@H](C(=O)NC(C)(C)C(N)=O)N(C)C(=O)[C@H](CC(C)C)NC(=O)[C@H](C)NC(=O)[C@H](CC(=O)O)NC(=O)[C@H](CC(N)=O)N(C)C(=O)CCCNC(=O)c1ccc(Oc2ccccc2)cc1 [Compound 98] ({Benzoyl(4-OPh)-GABA}-[NMeN]DAL[NMeI][Aib]-NH2; N-terminus assumed)	0.27 nM	
CC[C@H](C)[C@@H](C(=O)NCCCC[C@H](N)C(N)=O)N(C)C(=O)[C@H](CC(C)C)NC(=O)[C@H](CCN)NC(=O)[C@H](CC(=O)O)NC(=O)[C@H](NC(=O)[C@@H](N)CCCNC(=O)c1ccc(Oc2ccc(C(N)=O)cc2)cc1)[C@H](C)O [Compound 554] (H-[Orn](Benzoyl(4-OPh(4-CONH2)))[dT]D[Dab]L[NMeI][εLys]-NH2)	0.89 nM	
CC[C@H](C)[C@@H](C(=O)N1CCC[C@H]1CC(N)=O)N(C)C(=O)[C@@H]1CCCCNC(=O)CNC(=O)CC[C@H](NC(=O)CCCNS(=O)(=O)c2ccc(Oc3ccccc3)cc2)C(=O)N[C@@H](CC(=O)O)C(=O)N[C@@H](C)C(=O)N1 [Compound 892, [(2S,5S,8S,20S)-8-[{(2S,3S)-1-[(2S)-2-(2-amino-2-oxoethyl)pyrrolidin-1-yl]-3-methyl-1-oxopentan-2-yl}(methyl)carbamoyl]-5-methyl-3,6,14,17,21-pentaoxo-20-{4-[(4-phenoxybenzene-1-sulfonyl)amino]butanamido}-1,4,7,13,16-pentaazacyclohenicosan-2-yl]acetic acid] ({Benzenesulfonyl(4-OPh)-GABA}-EDAK[NMeI][β3hP]-NH2; linker 1-4 via G)		1.7 nM
CC[C@H](C)[C@@H](C(=O)N1CCC[C@H]1C(N)=O)N(C)C(=O)[C@H](CC(C)C)NC(=O)[C@H](C)NC(=O)[C@H](CC(=O)O)NC(=O)CN(C)C(=O)CCCNC(=O)c1ccc(Oc2ccccc2)cc1 [Compound 115] ({Benzoyl(4-OPh)-GABA}-[Sar]DAL[NMeI]P-NH2; N-terminus assumed)	0.42 nM	
CC(C)C[C@H](NC(=O)[C@H](CCN)NC(=O)[C@H](CC(=O)O)NC(=O)[C@H](CC(N)=O)N(C)C(=O)CCCNC(=O)c1ccc(Oc2ccccc2)cc1)C(=O)N(C)[C@@H](CCC(=O)O)C(=O)N1CCC[C@H]1C(N)=O [Compound 113] ({Benzoyl(4-OPh)-GABA}-[NMeN]D[Dab]L[NMeE]P-NH2; N-terminus assumed)	2.2 nM	
CC(C)C[C@H](NC(=O)[C@H](CCN)NC(=O)C[C@@H](NS(=O)(=O)c1ccc(-c2ccc(OCCO)cc2)cc1)C(=O)O)C(=O)N(C)[C@@H](CCC(=O)O)C(=O)N1CCC[C@H]1CC(N)=O [Compound 640] ({X7-d(βAsp)}-[Dab]L[NMeE][β3hP]-NH2; N-terminus assumed)	0.38 nM	
CCNC(=O)c1ccc(Oc2ccc(C(=O)NCCCCC(=O)N[C@@H](CCCCN)C(=O)N[C@@H](CC(=O)O)C(=O)N[C@@H](CCN)C(=O)N[C@@H](CC(C)C)C(=O)N(C)[C@H](C(=O)N3CCC[C@H]3CC(N)=O)[C@@H](C)CC)cc2)cc1 [Compound 193] ({Benzoyl(4-(4-EtNHCO-PhO))-Ava}-KD[Dab]L[NMeI][β3hP]-NH2; N-terminus assumed)	1.7 nM	
CNC(=O)c1ccc(Oc2ccc(C(=O)NCCCCC(=O)N[C@@H](CCCNC(=N)N)C(=O)N[C@@H](CC(=O)O)C(=O)N[C@@H](CCN)C(=O)N[C@@H](CC(C)C)C(=O)N(C)[C@@H](CCC(=O)O)C(=O)N3CCC[C@H]3CC(N)=O)cc2)cc1 [Compound 188] ({Benzoyl(4-O-C6H4-4-CONHMe)-Ava}-RD[Dab]L[NMeE][β3hP]-NH2; N-terminus assumed)	0.81 nM	
CC[C@H](C)[C@@H](C(=O)N1CCC[C@H]1CC(N)=O)N(C)C(=O)[C@H](CC(C)C)NC(=O)[C@H](CN)NC(=O)C[C@@H](NS(=O)(=O)c1ccc(NC(=O)c2ccc(OC)cc2)cc1)C(=O)O [Compound 692, N-[(2S)-3-amino-1-({(2S)-1-[{(2S,3S)-1-[(2S)-2-(2-amino-2-oxoethyl)pyrrolidin-1-yl]-3-methyl-1-oxopentan-2-yl}(methyl)amino]-4-methyl-1-oxopentan-2-yl}amino)-1-oxopropan-2-yl]-N^2-[4-(4-methoxybenzamido)benzene-1-sulfonyl]-D-asparagine] ({Phenylsulfonyl(4-anisamido)-d(βAsp)}-[Dap]L[NMeI][β3hP]-NH2)	0.068 nM	
CC[C@H](C)[C@@H](C(=O)N1CCC[C@H]1C(N)=O)N(C)C(=O)[C@H](CC(C)C)NC(=O)[C@H](C)NC(=O)[C@H](CC(=O)O)NC(=O)[C@H](CCC(=O)O)N(C)C(=O)CCCNC(=O)c1ccc(Oc2ccccc2)cc1 [Compound 126] ({Benzoyl(4-OPh)-GABA}-[NMeE]DAL[NMeI]P-NH2; N-terminus assumed)	0.29 nM	
